Data from PMC12706794, “Identification and Characterization of a Small-Molecule Inhibitor of the Pseudomonas aeruginosa SOS Response” (ACS Infectious Diseases, 2025).
Values after ≈ are worked out from the molar mass of the structure shown.

Experiments:
P. aeruginosa PAO1 = assay: Antimicrobial susceptibility testing (MIC); type: cell-based, P. aeruginosa PAO1 (ATCC 15692); details: for MIC: Pseudomonas aeruginosa, PAO1
Method: The MIC of compound A12 and antibiotics was determined by using the Clinical Laboratory Standard Institute (CLSI) recommendations with minor modifications. […] Microplates were incubated in a humidified incubator for 18 h at 37 °C, and the bacterial growth was quantified by OD600. According to CLSI, MICs are defined as the lowest concentrations of antimicrobial agents that prevent visible growth.

[1] = molecular target: T1, RecAPa*-induced FlAsH-LexAPa CTD autoproteolysis (Pseudomonas aeruginosa, UniProt P37452); assay: FP-based RecA*-induced LexA autoproteolysis in vitro assay; type: biochemical, P. aeruginosa; details: highest concentration tested, range 0.2 to 2 mM
T1 construct: 6His-SUMO (N, cleaved yes); made in house; host or cells: E. coli BL21(DE3)
Method: A custom-made library of 318 small molecules (MW < 1000 Da) has been screened at two different concentrations (25 μg/mL and 125 μg/mL, corresponding to molar concentrations of 30–170 μM and 150–850 μM, respectively) on the P. aeruginosa SOS system by a previously validated fluorescence polμarization (FP)-based RecA*-induced LexA autoproteolysis in vitro assay. , 1 μM FlAsH-LexAPa ^CTD and 1 μM preactivated RecA*Pa were incubated with the screened chemical fragments for 1 h at 37 °C before measuring FP.
Then, the FP-based LexA autoproteolysis assay was repeated on the two hits, monitoring the full kinetics of LexA cleavage over a 1 h incubation and exploring a wide range of drug concentrations (10–1000 μM).
A custom-made library of 318 chemical fragments (25 mg/mL stock solutions in DMSO), provided by P. Kavaliauskas (Weill Cornell Medicine of Cornell University) was screened in vitro for their ability to inhibit RecAPa*-mediated LexAPa autoproteolysis by a Fluorescence Polarization (FP)-based assay. , Twenty microliter reactions were set up in Nunc 384-Well Black microplates, and final reaction mixtures included 1 μM FlAsH-LexAPa ^CTD, the compounds (5% v/v DMSO in all the samples, including the controls devoid of compounds), and 1 μM RecAPa* (FP Buffer in the negative control; 30 mM Hepes, 150 mM NaCl, pH 7.1). The initial screening was performed with two dilutions of the compounds (25 and 125 μg/mL). The FP signal was measured after a 1 h incubation at 37 °C by an EnVision MultiMode Plate Reader (PerkinElmer) equipped with opportune FP filters and mirrors. To obtain LexAPa ^CTD autoproteolysis percent inhibition, FP data were scaled from 0% (corresponding to the positive control sample) to 100% (negative control).
Compounds displaying an inhibition of at least 50% at the highest concentration and a rather consistent increase in activity at the two tested concentrations were selected as the hits.
The same FP assay was carried out on serial dilutions of selected compounds to determine the dose–response relationship. To evaluate the effect of a reducing environment, 2 mM Tris(2-carboxyethyl)-phosphine (TCEP) was added to the reaction mixtures. The FP signal of FlAsH-LexAPa ^CTD alone was detected for 5 min before adding the compounds. The system was monitored for an additional 5 min in the presence of the tested compounds in order to observe potential aggregation events. Then, RecAPa* was added, and the autoproteolysis reaction was followed for 1 h at 37 °C (1 reading per minute). FlAsH-LexAPa ^CTD autoproteolysis percent inhibition was calculated as mentioned above and plotted as a function of compound concentration. Experimental data fitting was performed with GraphPad Prism 8 to obtain the absolute IC50.

[2] = tested on: P. aeruginosa PAO1 on THP-1-derived macrophages; assay: P. aeruginosa PAO1 colonization of THP-1-derived macrophages; type: cell-based; details: single agent: ciprofloxacin 0.5 μg/mL or A12 100 μg/mL; 3 h infection
Method: THP-1-derived macrophages were generated from THP-1 monocytes as previously described, with minor modifications. , Briefly, THP-1 monocytes were washed three times with antibiotic-free RPMI 1640 medium and resuspended in complete antibiotic-free RPMI 1640 supplemented with 300 nM phorbol 12-myristate 13-acetate (PMA). Cells were incubated for 24 h, followed by a 48 h rest period in PMA-free RPMI 1640 prior to use in subsequent experiments. […] PMA-differentiated THP-1-derived macrophages were similarly trypsinized and seeded into 24-well plates at 5 × 10^5 cells/well in complete, antibiotic-free RPMI supplemented with FBS. Cells were incubated overnight to allow for attachment. Immediately prior to infection, the medium was aspirated, and cells were washed three times with Dulbecco’s phosphate-buffered saline. […] Infection was synchronized by centrifuging plates at 1000g for 1 min. […] Following the infection period, the medium was aspirated, and cells were washed three times with DPBS to remove unattached bacteria and residual test compounds. […] In both cases, the resulting lysates were serially diluted in DPBS and plated on tryptic soy agar plates. Plates were incubated at 37 °C for 24 h, after which colonies were enumerated. Bacterial burden was expressed as the CFU per well.

[3] = molecular target: LexAPa S125A (uncleavable mutant) (Pseudomonas aeruginosa ATCC 27853, UniProt P37452 1-204, S125A); assay: EMSA; no A12, 10% DMSO; 8 uM LexA, 1 uM DNA; details: protein: recombinant; chain copies: 2; blunt
[4] = A12 (32 μg/mL) (+), in combination

Molecule	MIC on P. aeruginosa PAO1 (P. aeruginosa PAO1; [4])	MIC (P. aeruginosa PAO1; A12 (32 μg/mL) (−))	also measured
CN(C)[C@@H]1C(O)=C(C(N)=O)C(=O)[C@@]2(O)C(O)=C3C(=O)c4c(O)cccc4[C@@](C)(O)[C@H]3C[C@@H]12 [Tetracycline]	4 µg/mL	4 µg/mL (≈ 9 µM)	
CC(CC(=O)O)Nc1ccccc1CCc1ccccc1NC(C)CC(=O)O (stereo not shown) [BG-194, 3,3′-((ethane-1,2-diylbis(2,1-phenylene))bis(azanediyl))dibutyric acid]			LexAPa autocleavage percent inhibition of A12 derivatives [1]: did not display any inhibitory activity
O=C(O)c1cn(C2CC2)c2cc(N3CCNCC3)c(F)cc2c1=O [Ciprofloxacin, reference compound]			Total (adherent + intracellular) burden of PAO1 on THP-1-derived macrophages [2]: diminished
C[C@H]1COc2c(N3CCN(C)CC3)c(F)cc3c(=O)c(C(=O)O)cn1c23 [Levofloxacin]	0.125 µg/mL	0.0625 µg/mL (≈ 0.173 µM)	
Gentamycin	2 µg/mL		MIC on P. aeruginosa PAO1 (P. aeruginosa PAO1; A12 (32 μg/mL) (−)): 2 µg/mL
CO/N=C(\C(=O)N[C@@H]1C(=O)N2C(C(=O)O)=C(CSc3nc(=O)c(=O)[nH]n3C)CS[C@H]12)c1csc(N)n1 [Ceftriaxone]	8 µg/mL	8 µg/mL (≈ 14.4 µM)	
O=C(O)CCNc1ccccc1CCc1ccccc1NCCC(=O)O [BG-191, 3,3′-((ethane-1,2-diylbis(2,1-phenylene))bis(azanediyl))dipropionic acid]			LexAPa autocleavage percent inhibition of A12 derivatives [1]: 20%
COc1c(N2C[C@@H]3CCCN[C@@H]3C2)c(F)cc2c(=O)c(C(=O)O)cn(C3CC3)c12 [Moxifloxacin]		0.0312 µg/mL (≈ 0.0777 µM)	
SOS-box dsDNA (AT-repeat) (dsDNA) DNA 1: GATGCCTGCGGATACTGTATATATATACAGTATCAATTCTGGCT DNA 2: AGCCAGAATTGATACTGTATATATATACAGTATCCGCAGGCATC			binding result [3]: binds
